Consider 4 molecules from patent US20090203671A1, “METHOD OF TREATING CANCER” (ABBOTT LABORATORIES, priority 2007, published 2009).

In assay [1] the test system is D54MG glioblastoma multiforme cell line. Kind of assay: Cell proliferation assay (CellTiter-Glo), Aurora inhibitor combined with TRAIL. The class given is cell-based. Particulars: Aurora inhibitor at 1 μM combined with TRAIL, 72 h, FIG. 1. The method, then: Cells were seeded into 96-well plates at 2,500 cells per well and allowed to adhere overnight. Compounds and TRAIL were added the following day, and cells were incubated at 37° C. for 72 h. […] Percent inhibition of viability was determined relative to cells treated with DMSO alone (0.1%). Data are representative of at least three independent experiments with each data point carried out in triplicate.
In general terms: In ATP-based viability assays light output follows the ATP content of the culture.

The test system of assay [2] is glioma cell lines where DR5 was induced. Put plainly: TRAIL-mediated apoptosis in glioma cell lines after polyploidization. Particulars: glioma cell lines where DR5 was induced following polyploidization. The class given is cell-based. The method, then: To identify candidate apoptosis-sensitizing genes that could be exploited in combination with Aurora kinase inhibitors in malignant glioma, global gene expression analysis in a D54MG glioma cell derivative treated with three Aurora kinases inhibitors chosen for their distinctive selectivities was carried out: MLN8054 (4-((9-chloro-7-(2,6-difluorophenyl)-5H-pyrimidol[5,4-d][2]benzazepin-2-yl)amino)benzoic acid, Aurora-A-selective), AZD1152-HQPA (Aurora-B-selective), and VX-680 (Aurora-A/B). This analysis identified the TRAIL death receptor, DR5, as an apoptosis sensitizing gene induced selectively following inhibition of Aurora-B kinase cancer cells. In glioma cell lines where DR5 was induced following polyploidization, the sensitivity, kinetics, and magnitude of TRAIL-mediated apoptosis were enhanced.

Consider `CCN(CCO)CCCOc1ccc2c(Nc3cc(CC(=O)Nc4cccc(F)c4)[nH]n3)ncnc2c1` [AZD 1152-HQPA], for which, in assay [1], the “anti-proliferative effect of combination with TRAIL” value (shortened to “anti-proliferative effect”) is “synergistic anti-proliferative effects”.

Take `O=C(O)c1ccc(Nc2ncc3c(n2)-c2ccc(Cl)cc2C(c2c(F)cccc2F)=NC3)cc1` [MLN-8054, 4-((9-chloro-7-(2,6-difluorophenyl)-5H-pyrimidol[5,4-d][2]benzazepin-2-yl)amino)benzoic acid]: the “anti-proliferative effect” value in assay [1] is given as “synergistic anti-proliferative effects”. As to `Cc1cc(Nc2cc(N3CCN(C)CC3)nc(Sc3ccc(NC(=O)C4CC4)cc3)n2)n[nH]1` [VX-680/MK0457], the “anti-proliferative effect” value in assay [1] was “synergistic anti-proliferative effects”.

B1: TRAIL: tumor necrosis factor (TNF)-related apoptosis inducing ligand; binds death receptors DR4 and DR5 (protein, UniProt P50591 1-281, looked up)
Tumor necrosis factor ligand …: MAMMEVQGGPSLGQTCVLIVIFTVLLQSLCVAVTYVYFTNELKQMQDKYSKSGIACFLKEDDSYWDPNDEESMNSPCWQVKWQLRQLVRKMILRTSEETISTVQEKQQNISPLVRERGPQRVAAHITGTRGRSNTLSSPNSKNEKALGRKINSWESSRSGHSFLSNLHLRNGELVIHEKGFYYIYSQTYFRFQEEIKENTKNDKQMVQYIYKYTSYPDPILLMKSARNSCWSKDAEYGLYSIYQGGIFELKENDRIFVSVTNEHLIDMDHEASFFGAFLVG
For B1, the “sensitivity, kinetics, and magnitude of TRAIL-mediated apoptosis” value in assay [2] is “enhanced”.
